Among the data in US8940722B2, “Compounds for modulation of orphan nuclear receptor RAR-related orphan receptor-gamma (RORγ, NR1F3) activity and for the treatment of chronic inflammatory and autoimmune disease” (Phenex Pharmaceuticals AG, priority 2010, dated 2015) are IC50 values, retold here.

Bounds are passed on as bounds.

For the assay, the target named is T1, RORγ ligand binding domain (LBD) (Homo sapiens, UniProt P51449).
T1 construct: made in house; host or cells: E. coli BL-21 (BL3), vector pDEST15
T1 sequence (P51449 269-508 limits assumed): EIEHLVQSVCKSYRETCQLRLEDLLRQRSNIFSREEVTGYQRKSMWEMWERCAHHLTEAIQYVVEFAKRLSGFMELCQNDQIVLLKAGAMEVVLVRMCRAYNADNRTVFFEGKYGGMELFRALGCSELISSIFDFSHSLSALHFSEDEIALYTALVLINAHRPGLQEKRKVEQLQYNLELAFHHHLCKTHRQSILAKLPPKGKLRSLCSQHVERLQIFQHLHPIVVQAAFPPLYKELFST
The assay is described as follows: TR-FRET Activity Assay (RORγ-LBD / coactivator peptide interaction). In kind it is biochemical. To be noted: Table 2; read-out: RORγ activity in the TR-FRET Activity Assay (IC50 FRET), Group. From the text: This method measures the ability of putative ligands to modulate the interaction between the purified bacterial expressed RORγ ligand binding domain (LBD) and synthetic N-terminally biotinylated peptides which are derived from nuclear receptor coactivator proteins such as but not limited to SRC1 (NcoA1), SRC2 (NcoA2, TIF2), SRC3 (NcoA3), PGC1α, PGC1β, CBP, GRIP1, TRAP220, RIP140.
The ligand-binding domain (LBD) of RORγ was expressed as fusion protein with GST in […] cells using the vector pDEST15. Cells were lysed by lysozyme-treatment and sonication, and the fusion proteins purified over glutathione sepharose (Pharmacia) according to the manufacturers instructions. For screening of compounds for their influence on the RORγ-peptide interaction, the LANCE technology (Perkin Elmer) was applied. This method relies on the binding dependent energy transfer from a donor to an acceptor fluorophor attached to the binding partner of interest. For ease of handling and reduction of background from compound fluorescence LANCE technology makes use of generic fluorophore labels and time resolved detection assays were done in a final volume of 25 μL in a 384 well plate, in a Tris-based buffer system (20 mM Tris-HCl pH6.8; 60 mM KCl, 1 mM DTT; 5 mM MgCl2; 35 ng/μL BSA), containing 20-60 ng/well recombinantly expressed RORγ-LBD fused to GST, 200-600 nM N-terminally biotinylated peptide, 200 ng/well Streptavidin-xIAPC conjugate (Prozyme) and 6-10 ng/well Eu W1024—antiGST (Perkin Elmer). DMSO content of the samples was kept at 1%.
After generation of the Tris-based buffer system, the potentially RORγ modulating ligands were diluted. […] The LANCE signal was detected by a Perkin Elmer EnVision™ Multilabel Counter. The results were visualized by plotting the ratio between the emitted light at 665 nm and 615 nm. […] Ligands that promote the complex formation induce a concentration-dependent increase in time-resolved fluorescent signal.
To assess the antagonistic potential of the compounds, IC50 values were determined using a Ligand Sensing Assay based on Time-resolved Fluorescence Energy Transfer (TR-FRET) as described above. The normalised TR-FRET assay values, using the following equation: 1000*665 nm measurement value/615 nm measurement value, were transferred to the program GraphPad Prism to generate graphs and dose response curves using the following equation: • Equation: Sigmoidal dose-response (variable slope) Y=Bottom+(Top−Bottom)/(1+10^((Log EC50−X)*HillSlope))
This is identical to the “four parameter logistic equation”. The IC50 values are calculated using this equation.
Background: Time-resolved FRET reads energy transfer from a long-lived donor to a nearby acceptor.

As for `O=S(=O)(c1cccc2cccnc12)N1Cc2cccnc2COC[C@H]1Cc1ccccc1` [compound 6], the 50% inhibitory concentration (IC50) (commonly the concentration that inhibits the measured activity by half) was less than 500 nM.

In the case of `O=S(=O)(c1cc(F)ccc1N1CCOCC1)N1Cc2ccccc2COCC1Cc1ccccc1` (centres unmarked) [compound 12], the IC50 is more than 2000 nM. Turning to `COc1ccccc1S(=O)(=O)N1Cc2ccccc2COCC1Cc1ccc(C#N)cc1` (centres unmarked) [5/4], the IC50 was more than 2000 nM.

With `COc1ccccc1S(=O)(=O)N1Cc2c(C#N)cccc2COCC1Cc1ccccc1` (centres unmarked) [5/2], the IC50 is more than 2000 nM. The figure for `COc1ccccc1S(=O)(=O)N1Cc2ccccc2COCC1Cc1ccc(F)cc1` (centres unmarked) [1/37] is 500 to 2000 nM; for `O=S(=O)(c1cc(C(F)(F)F)ccc1F)N1Cc2ccccc2COCC1Cc1ccccc1` (centres unmarked) [1/24] it is less than 500 nM; for `CC(C)(O)C[C@@H]1COCc2ccccc2CN1S(=O)(=O)c1cccc2cccnc12` [Preparative Example 22, (R)-2-Methyl-1-(5-(quinolin-8-ylsulfonyl)-3,4,5,6-tetrahydro-1H-benzo[f][1,4]oxazocin-4-yl)propan-2-ol] it is more than 2000 nM. Regarding `COc1ccccc1S(=O)(=O)N1Cc2ccccc2OCCC1Cc1ccccc1` (centres unmarked) [compound 4], the IC50 lay within 500 to 2000 nM. In the case of `O=S(=O)(c1ccccc1F)N1Cc2ccccc2COCC1Cc1ccccc1` (centres unmarked) [1/14], the IC50 was less than 500 nM. With `O=S(=O)(c1cccc2cccnc12)N1Cc2ccccc2COC[C@H]1Cc1cccnc1` [compound 7] the figure was 500 to 2000 nM; with `N#Cc1ccc(Cl)cc1S(=O)(=O)N1Cc2ccccc2COCC1Cc1ccccc1` (centres unmarked) [1/19], less than 500 nM; with `O=S(=O)(c1cc(F)ccc1OCCN1CCOCC1)N1Cc2ccccc2COCC1Cc1ccccc1` (centres unmarked) [Preparative Example 11], more than 2000 nM. As for `COc1ccccc1S(=O)(=O)N1Cc2ccc(F)cc2COCC1Cc1ccccc1` (centres unmarked) [1/35], the IC50 was more than 2000 nM.

Consider `CN1Cc2ccccc2CN(S(=O)(=O)c2cccc3cccnc23)[C@H](Cc2ccccc2)C1=O` [compound 9], for which the IC50 is more than 2000 nM.

On to `COc1ccccc1S(=O)(=O)N1Cc2cc(F)ccc2COCC1Cc1ccccc1` (centres unmarked) [1/33], for which the IC50 is more than 2000 nM. On to `COc1ccccc1S(=O)(=O)N1Cc2ccccc2COCC1Cc1cccc(Br)c1` (centres unmarked) [3/2], for which the IC50 was less than 500 nM. With `O=S(=O)(c1c(Cl)ccc2nonc12)N1Cc2ccccc2COCC1Cc1ccccc1` (centres unmarked) [1/11] the figure was 500 to 2000 nM; with `O=S(=O)(c1ccccc1C(F)(F)F)N1Cc2ccccc2COCC1Cc1ccccc1` (centres unmarked) [1/25], 500 to 2000 nM. Regarding `O=S(=O)(c1cccc2cccnc12)N1Cc2ccccc2COC[C@H]1CN1CCOCC1` [17/4], the IC50 is less than 500 nM. With `COc1ccccc1S(=O)(=O)N1Cc2c(cccc2OC)COCC1Cc1ccccc1` (centres unmarked) [5/1] the figure was more than 2000 nM; with `Cc1c(F)cccc1S(=O)(=O)N1Cc2ccccc2COCC1Cc1ccccc1` (centres unmarked) [1/17], 500 to 2000 nM. With `O=S(=O)(c1ccccc1OC(F)(F)F)N1Cc2nnc(C(F)(F)F)n2CCC[C@H]1Cc1ccccc1` [Preparative Example 31, (S)-8-Benzyl-9-((2-(trifluoromethoxy)phenyl)sulfonyl)-3-(trifluoromethyl)-5,6,7,8,9,10-hexahydro-[1,2,4]triazolo[4,3-a][1,4]diazocine] the figure was more than 2000 nM; with `COc1cccc(CC2COCc3ccccc3CN2S(=O)(=O)c2cccc3cccnc23)c1` (centres unmarked) [1/38], less than 500 nM; with `COc1cccc(-c2cccc(CC3COCc4ccccc4CN3S(=O)(=O)c3ccccc3OC)c2)n1` (centres unmarked) [5/6], more than 2000 nM. The figure for `O=S(=O)(c1c(F)cccc1F)N1Cc2ccccc2COCC1Cc1ccccc1` (centres unmarked) [1/22] is less than 500 nM. With `COc1ccc2c(c1)CN(S(=O)(=O)c1ccccc1OC)C(Cc1ccccc1)COC2` (centres unmarked) [1/34], the IC50 is more than 2000 nM. The figure for `Cc1ccc(Cl)cc1S(=O)(=O)N1Cc2ccccc2COCC1Cc1ccccc1` (centres unmarked) [1/20] is 500 to 2000 nM; for `COc1ccc(F)cc1S(=O)(=O)N1Cc2ccccc2COCC1Cc1ccccc1` (centres unmarked) [1/5] it is less than 500 nM; for `Cc1nn(C)c(Cl)c1S(=O)(=O)N1Cc2ccccc2COCC1Cc1ccccc1` (centres unmarked) [1/32] it is more than 2000 nM.

On to `Cc1ccc2nsnc2c1S(=O)(=O)N1Cc2ccccc2COCC1Cc1ccccc1` (centres unmarked) [1/13], for which the IC50 is 500 to 2000 nM. The figure for `COc1ccccc1S(=O)(=O)N1Cc2cccc(OC)c2COCC1Cc1ccccc1` (centres unmarked) [1/36] is 500 to 2000 nM. For `Cc1nnc(C[C@@H]2COCc3ccccc3CN2S(=O)(=O)c2cccc3cccnc23)o1` [Preparative Example 27, (R)-4-((5-Methyl-1,3,4-oxadiazol-2-yl)methyl)-5-(quinolin-8-ylsulfonyl)-3,4,5,6-tetrahydro-1H-benzo[f][1,4]oxazocine], the concentration for half-maximal inhibition (IC50) is more than 2000 nM. With `O=S(=O)(c1c(Cl)cccc1Cl)N1Cc2ccccc2COCC1Cc1ccccc1` (centres unmarked) [1/23] the figure was 500 to 2000 nM. For `O=S(=O)(c1cccc2cccnc12)N1Cc2ccccc2CCCC1Cc1ccccc1` (centres unmarked) [compound 30], the IC50 was in the range of 500 to 2000 nM. The figure for `COc1cccc(S(=O)(=O)N2Cc3ccccc3COCC2Cc2ccccc2)c1` (centres unmarked) [1/28] is 500 to 2000 nM. The figure for `Cn1cnc(S(=O)(=O)N2Cc3ccccc3COCC2Cc2ccccc2)c1Cl` (centres unmarked) [1/31] is more than 2000 nM. The figure for `O=S(=O)(c1cc(Cl)sc1Cl)N1Cc2ccccc2COCC1Cc1ccccc1` (centres unmarked) [1/27] is more than 2000 nM. Regarding `O=S(=O)(c1ccccc1OC(F)(F)F)N1Cc2nncn2CCC[C@H]1Cc1ccccc1` [31/1], the IC50 lay within 500 to 2000 nM. Turning to `O=S(=O)(c1cccc2cccnc12)N1Cc2ccccc2COC[C@H]1COCc1ccccc1` [16/1], the IC50 lay in the range of 500 to 2000 nM.

Take `O=S(=O)(c1cc(Cl)ccc1F)N1Cc2ccccc2COCC1Cc1ccccc1` (centres unmarked) [1/18]: the IC50 was less than 500 nM. The figure for `O=S(=O)(c1cccc2cccnc12)N1Cc2cccc(O)c2COCC1Cc1ccccc1` (centres unmarked) [compound 13] is more than 2000 nM; for `COc1ccccc1S(=O)(=O)N1Cc2c(Br)cccc2COCC1Cc1ccccc1` (centres unmarked) [3/1] it is more than 2000 nM; for `CC(C)(C)OC[C@@H]1COCc2ccccc2CN1S(=O)(=O)c1cccc2cccnc12` [Preparative Example 14, (S)-4-(tert-Butoxymethyl)-5-(quinolin-8-ylsulfonyl)-3,4,5,6-tetrahydro-1H-benzo[f][1,4]oxazocine] it is less than 500 nM. The figure for `COCCOC[C@@H]1COCc2ccccc2CN1S(=O)(=O)c1cccc2cccnc12` [16/2] is more than 2000 nM; for `COc1ccccc1S(=O)(=O)N1Cc2ccccc2COCC1Cc1cccc(C#N)c1` (centres unmarked) [5/3] it is less than 500 nM; for `O=S(=O)(c1cccc2nsnc12)N1Cc2ccccc2COCC1Cc1ccccc1` (centres unmarked) [1/12] it is less than 500 nM. As to `COc1cccc2c1COCC(Cc1ccccc1)N(S(=O)(=O)c1cccc3cccnc13)C2` (centres unmarked) [1/40], the IC50 is less than 500 nM. For `Cc1nc(S(=O)(=O)N2Cc3ccccc3COCC2Cc2ccccc2)cn1C` (centres unmarked) [1/30], the IC50 was more than 2000 nM. The figure for `O=S(=O)(c1cccc2cccnc12)N1Cc2ccccc2COC[C@H]1CN1CCCCC1` [17/2] is more than 2000 nM; for `CCOc1ccc(F)cc1S(=O)(=O)N1Cc2cccnc2COC[C@H]1COC(C)(C)C` [6/3] it is 500 to 2000 nM. The figure for `COc1ccc(S(=O)(=O)N2Cc3ccccc3COCC2Cc2ccccc2)cc1` (centres unmarked) [1/29] is more than 2000 nM; for `O=S(=O)(c1cccc2nonc12)N1Cc2ccccc2COCC1Cc1ccccc1` (centres unmarked) [1/10] it is less than 500 nM. With `COc1ccccc1S(=O)(=O)N1Cc2ccccc2CS(=O)(=O)CC1Cc1ccccc1` (centres unmarked) [compound 29] the figure was more than 2000 nM; with `COC(=O)c1ccccc1S(=O)(=O)N1Cc2ccccc2COCC1Cc1ccccc1` (centres unmarked) [1/39], 500 to 2000 nM. As for `O=S(=O)(c1cccc2c1OCC2)N1Cc2ccccc2COCC1Cc1ccccc1` (centres unmarked) [1/9], the IC50 was less than 500 nM. The figure for `CC(C)(C)OC[C@@H]1COCc2ncccc2CN1S(=O)(=O)c1cccc2c1OCC2` [6/5] is 500 to 2000 nM.
